# Assays:
# [1] = Comet tail intensity assay of DNA damage and repair after H2O2; format: cell-based, mouse; conditions: 10 µM, 200 µM H2O2, repair over 30 min
# primary cortical neurons [2] = assay: Mitochondrial and cytosolic NAD+ 24 h after OGD; format: cell-based, rat; conditions: 10 nM, n = 6/group
# active PARP1 enzyme = active PARP1 enzyme (Homo sapiens, UniProt P09874); assay: PARP1 enzyme inhibition ex vivo; conditions: 0–100 nM on active PARP1 enzyme (10 U), triplicate
# primary cortical neurons [3] = assay: Oxygen-glucose deprivation; format: cell-based, rat; conditions: concentrations >100 nM
# [4] = Glutamate-induced ferroptotic cell death in HT22 cells, LDH release at 24 h; format: cell-based, mouse; conditions: 5 mM glutamate, LDH at 24 h, n = 5/group
# [5] = system: rat primary cortical neurons; assay: Cytotoxicity in primary cortical neurons, LDH release at 24 h; format: cell-based; conditions: n = 6/group
# cancer cell lines = conditions: most cancer cell lines; cited from earlier work
# Sequence of active PARP1 enzyme (P09874 whole entry): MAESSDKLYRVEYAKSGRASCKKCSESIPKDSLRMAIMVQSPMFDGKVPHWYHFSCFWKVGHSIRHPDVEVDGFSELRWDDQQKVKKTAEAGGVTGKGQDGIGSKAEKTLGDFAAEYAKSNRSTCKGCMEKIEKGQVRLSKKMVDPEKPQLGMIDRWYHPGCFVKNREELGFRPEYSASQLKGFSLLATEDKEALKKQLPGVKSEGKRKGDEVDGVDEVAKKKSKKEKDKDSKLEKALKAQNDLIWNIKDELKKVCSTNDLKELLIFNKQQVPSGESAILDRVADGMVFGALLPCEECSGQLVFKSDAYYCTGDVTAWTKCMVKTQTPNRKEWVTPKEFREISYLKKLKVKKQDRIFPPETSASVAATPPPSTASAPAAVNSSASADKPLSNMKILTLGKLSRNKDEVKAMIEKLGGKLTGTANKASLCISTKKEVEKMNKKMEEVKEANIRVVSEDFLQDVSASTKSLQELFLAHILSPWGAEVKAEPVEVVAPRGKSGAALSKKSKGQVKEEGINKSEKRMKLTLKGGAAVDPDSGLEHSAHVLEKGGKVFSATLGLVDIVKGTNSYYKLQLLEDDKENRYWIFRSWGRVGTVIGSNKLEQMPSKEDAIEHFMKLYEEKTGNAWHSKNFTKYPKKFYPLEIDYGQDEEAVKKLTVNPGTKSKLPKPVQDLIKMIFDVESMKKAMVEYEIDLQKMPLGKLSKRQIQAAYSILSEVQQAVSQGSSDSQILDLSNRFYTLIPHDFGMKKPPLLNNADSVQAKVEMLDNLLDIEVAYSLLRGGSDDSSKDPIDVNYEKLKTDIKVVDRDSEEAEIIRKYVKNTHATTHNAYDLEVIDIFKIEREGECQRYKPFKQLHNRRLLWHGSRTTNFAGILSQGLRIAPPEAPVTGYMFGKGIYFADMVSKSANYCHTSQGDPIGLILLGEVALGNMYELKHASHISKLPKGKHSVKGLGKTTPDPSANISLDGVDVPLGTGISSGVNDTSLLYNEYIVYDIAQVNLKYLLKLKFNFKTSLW
smiles,measurement,setting,value
"C[C@@]1(c2nc3c(C(N)=O)cccc3[nH]2)CCCN1 [veliparib, 2-[(S)-2-methylpyrrolidin-2-yl]-1H-benzimidazole-4-carboxamide]",Effect on DNA repair after H2O2,[1],impeded DNA repair
same,Mitochondrial NAD+ stores after OGD,primary cortical neurons [2],preserved
same,"PARP1 inhibition, veliparib versus XJB-veliparib",active PARP1 enzyme,similar
same,Protection against OGD at higher concentrations,primary cortical neurons [3],no additional protection
same,Inhibition of glutamate-induced ferroptosis,[4],inhibit glutamate-induced ferroptosis
same,Concentration at which neurotoxicity (defined as >10% cell death) was seen,[5],1000 nM
same,Tumoricidal concentration,cancer cell lines,> 100 µM
